Experimental data reported in patent US20120087914A1, “INHIBITION OF TRIM62 ACTIVITY REDUCES CANCER CELL PROLIFERATION” (Fred Hutchinson Cancer Research Center, priority 2008, published 2012).

Tests used:
Assay type in all cases: cell-based, human
MCF10A cells = assay: EdU incorporation by flow cytometry in MCF10A cells; conditions: 15 nM siRNA, 48 hours posttransfection, 1.5 hours EdU, control SiRNA 29.5%
Method: (§1) 4×10^5 MCF10A cells (immortalized, non-transformed epithelial cells derived from human fibrocystic mammary tissue; ATCC CRL-10217) or BT474 cells (Her2^+ human breast cancer cell line) were seeded in growth media (DMEM/F12 (Gibco), 5% horse serum (Invitrogen), […] (Peprotech), 1 mg/ml hydrocortisone (Sigma), […] cholera toxin (Sigma), […] (Sigma), and Pen/Strep (Invitrogen)). After 24 hours, media was changed to antibiotic-free growth medium, and lipofectamine 2000 was used to cotransfect MCF10A cells with either 15 nM Trim62SiRNA (SEQ ID NO: 9; 5′ AAGAAGCAGAGAAGCGCGC-3″ (Integrated DNA Technologies)) and 15 nM siGlow (non-targeting control siRNA labeled with Cy3 (Thermo Scientific)), or 15 nM Trim62scrambled siRNA (SEQ ID NO:10; 5′ GCGAGGACGGACAAA CAGA 3′ (Sigma)) and 15 nM siGlow; for BT474 cells 25 nM siRNA was used. 6 hours post transfection, media was replaced with growth media containing antibiotics, and 48 hours postransfection, MCF10A cell were incubated for 1.5 hours with […] (5-ethynyl-2′-deoxyuridine, an analog of BrdU); for BT474 cells incubation with EdU was for 12 hours. Cells were trypsinized, washed with PBS-1% FBS, and sorted for Cy3 transfection marker using a cell sorter (BD FACSArisII cell sorter). […] The data was collected using a BD FACS Diva software package and analyzed using BD CellQuest Pro Software. […]

BT474 cells = assay: EdU incorporation by flow cytometry in BT474 cells; conditions: 25 nM siRNA, 12 hours EdU, Control siRNA 17.5%
Method: as §1

MCA10F cells = assay: Cell cycle distribution of exponentially growing MCA10F cells (FIG. 9); conditions: sorted on siGLO-FITC
Method: FIG. 9 provides an assessment of TRIM62siRNA on the cell cycle of MCA10F exponentially growing cells. The cells were sorted on siGLO-FITC.
as §1, with “hours.” for “hours. Cells were trypsinized, washed with PBS-1% FBS, and sorted for Cy3 transfection marker using a cell sorter (BD FACSArisII cell sorter).”

[1] = system: p27^Kip1 protein levels in UACC893 cells; assay: p27^Kip1 Western blot in UACC893 cells with lapatinib and/or TRIM62 siRNA; conditions: UACC893 cells (amplified ErbB2), 0.5 μM lapatinib, siRNA from expression vector, FIG. 7
Method: A breast cancer cell line with an amplified ErbB2 gene (UACC893) was transfected with a TRIM62 siRNA expression vector or a vector that expressed a control siRNA. p27^Kip1 levels were assayed by Western blotting using a p27^Kip1 specific antibody. After treatment of the control-transfected cells with 0.5 μM lapatinib, p27^Kip1 levels increased as compared to the untreated cells. Cells transfected with the TRIM62 siRNA also had increased p27^Kip1 levels.
p27^Kip1 protein levels were measured in breast cancer cells with ErbB2 gene amplification after administration of an ErbB2 specific mall organic molecule, lapatinib. p27^Kip1 expression levels were higher after lapatinib was administered. […] The increased levels of p27^Kip1 expression coincided with increased nuclear localization of p27^Kip1. Data not shown.

[2] = system: p27^Kip1 protein levels in UACC893 cells transfected with a TRIM62 expression vector; assay: p27^Kip1 Western blot in UACC893 cells overexpressing TRIM62, treated with lapatinib; conditions: UACC893 cells overexpressing TRIM62, 0.5 μM lapatinib, FIG. 8
Method: A breast cancer cell line with an amplified ErbB2 gene (UACC893) was transfected with a TRIM62 expression vector or an empty vector. p27^Kip1 levels were assayed by Western blotting using a p27^Kip1 specific antibody. Cells were treated with 0.5 μM lapatinib or buffer.
The effect of overexpression of TRIM62 protein on p27^Kip1 expression was determined in breast cancer cells with ErbB2 gene amplification. […] A breast cancer cell line with an amplified ErbB2 gene (UACC893) was transfected with a TRIM62 expression vector or an empty vector. p27^Kip1 levels were assayed by Western blotting using a p27^Kip1 specific antibody. Cells were treated with 0.5 μM lapatinib or buffer. As compared to an empty vector control, cells that overexpressed TRIM62 had low levels of p27^Kip1 protein expression.

Compound	EdU^+ cells (MCF10A cells) [%]	EdU^+ cells (BT474 cells) [%]	percentage of cells that remain in G1 (MCA10F cells)	p27^Kip1 protein expression levels [1]	expression of p27^Kip1 protein [2]
5′ AAGAAGCAGAGAAGCGCGC-3″ [T62siRNA]	11.1	9	higher percentage	–	–
CS(=O)(=O)CCNCc1ccc(-c2ccc3ncnc(Nc4ccc(OCc5cccc(F)c5)c(Cl)c4)c3c2)o1 [lapatinib]	–	–	–	higher	did not result in increased expression
